This is an account of results in patent US4647687A, “Halogenated sulphides, process for their preparation and their use in microbicidal agents” (Bayer Aktiengesellschaft, priority 1983, dated 1987).

Converted amounts (≈) assume the structure as drawn. Where two headings read alike, the source gives them in different places.

In one experiment the test system is slime organisms. As to the kind of experiment: Action against slime organisms (MIC in Allen's nutrient solution). It counts as cell-based. As to conditions: 336 h, about 10^6 germs/ml, 3 weeks at room temperature.
For the next experiment, the system named is Sclerophoma pityophila. The experiment in a line: MIC against fungi, beerwort/peptone agar. As to conditions: 28° C., 60 to 70% relative humidity, 2 weeks.
A further experiment concerns Chaetomium globosum. As to the kind of experiment: MIC against fungi, beerwort/peptone agar. As to conditions: 28° C., 60 to 70% relative humidity, 2 weeks.
The next experiment has as its system Staphylococcus aureus. The experiment in a line: Action against bacteria (MIC in broth agar). It counts as cell-based. As to conditions: 28° C., 60 to 70% relative humidity, 2 weeks.
The next experiment deals with Aspergillus niger. As to the kind of experiment: MIC against fungi, beerwort/peptone agar. Particulars: 28° C., 60 to 70% relative humidity, 2 weeks.
The test system of a further experiment is Eschercihia coli. The experiment in a line: Action against bacteria (MIC in broth agar). It counts as cell-based. Particulars: Escherichia coli, 28° C., 60 to 70% relative humidity, 2 weeks.
A further experiment has as its system Trichoderma viride. As to the kind of experiment: MIC against fungi, beerwort/peptone agar.
The next experiment relates to Polyporus versicolor. The experiment in a line: MIC against fungi, beerwort/peptone agar.
The test system of the next experiment is Penicillium glaucum. The experiment in a line: MIC against fungi, beerwort/peptone agar. As to conditions: 28° C., 60 to 70% relative humidity, 2 weeks.
Experiment [1] has as its system microbes (bacteria, yeasts and moulds) isolated from microbially decayed cooling lubricant use dilutions. As to the kind of experiment: Testing as a preservative for cooling lubricants. As to conditions: 1% active compound in mineral oil cooling lubricant; 5% strength use dilutions contaminated daily for 3 months. The method, then:
1% of the active compound is added, as a preservative, to a cooling lubricant based on mineral oil. 5% strength use dilutions of the cooling lubricant are massively contaminated daily for 3 months with microbes (bacteria, yeasts and moulds) isolated from microbially decayed cooling lubricant use dilutions.

In the next experiment the test system is Aureobasidium pullulans. As to the kind of experiment: MIC against fungi, beerwort/peptone agar.
Another experiment has as its system Coniophora puteana. The experiment in a line: MIC against fungi, beerwort/peptone agar. Particulars: 28° C., 60 to 70% relative humidity, 2 weeks.
The subject of the next experiment is Alternaria tenuis. The experiment in a line: MIC against fungi, beerwort/peptone agar. As to conditions: 28° C., 60 to 70% relative humidity, 2 weeks.
The next experiment has as its system Lentinus tigrinus. The experiment in a line: MIC against fungi, beerwort/peptone agar. Particulars: 28° C., 60 to 70% relative humidity, 2 weeks.
The mark [2] stands for this setting: 28° C., 60 to 70% relative humidity, 2 weeks.

Take `N#CC=C(Cl)SCCC#N` [Example 1, 1-chloro-2-cyanovinyl 2-cyano-ethyl sulphide]: in the experiment on slime organisms, the lowest concentration to inhibit growth (MIC) was 0.15 µg/mL (≈ 0.869 µM).
In the case of `N#CCCSC(Cl)=C(Cl)C#N` [Example 2, 1,2-dichloro-2-cyano-vinyl 2-cyano-ethyl sulphide], the MIC against Sclerophoma pityophila (Sydowia polyspora, 336 h) was 20 µg/mL (≈ 96.6 µM); in the experiment on Chaetomium globosum (336 h), below 20 µg/mL; with Staphylococcus aureus (336 h, read-out: MIC), 35 µg/mL (≈ 169 µM); against Aspergillus niger (336 h), below 20 µg/mL; in the experiment with slime organisms, 2 µg/mL (≈ 9.66 µM); in the experiment on Eschercihia coli (336 h, read-out: MIC) it was 200 µg/mL (≈ 966 µM).
`N#CC(Cl)=CSC(Cl)=C(Cl)C#N` [Example 5, 1,2-dichloro-2-cyano-vinyl 2-chloro-2-cyano-vinyl sulphide]: the MIC amounted to 10 µg/mL (≈ 41.8 µM) against Trichoderma viride (336 h); 1 µg/mL (≈ 4.18 µM) in the experiment on Polyporus versicolor (Trametes versicolor, 336 h); 1 µg/mL (≈ 4.18 µM) against Penicillium glaucum (Penicillium, 336 h); 0.5 µg/mL (≈ 2.09 µM) in the experiment on Sclerophoma pityophila (Sydowia polyspora, 336 h); 2 µg/mL (≈ 8.35 µM) against Chaetomium globosum (336 h); 5 µg/mL (≈ 20.9 µM) in the experiment with Aureobasidium pullulans (336 h). The minimum inhibitory concentration (MIC) was below 0.1 µg/mL with Coniophora puteana (336 h); 20 µg/mL (≈ 83.5 µM) in the experiment with Alternaria tenuis (Alternaria alternata, 336 h); 10 µg/mL (≈ 41.8 µM) with Staphylococcus aureus (336 h, read-out: MIC); 2 µg/mL (≈ 8.35 µM) against Aspergillus niger (336 h); 0.35 µg/mL (≈ 1.46 µM) with slime organisms; 20 µg/mL (≈ 83.5 µM) with Eschercihia coli (336 h, read-out: MIC). In the experiment with Lentinus tigrinus (336 h), the lowest concentration to inhibit growth (MIC) was 0.5 µg/mL (≈ 2.09 µM). In addition, in [1], the “state of the use dilutions at the end of the testing period” value is “free from germs”.
On to `N#CC(Cl)=C(Cl)SC(Cl)=C(Cl)C#N` [Example 8, bis-(1,2-dichloro-2-cyano-vinyl) sulphide], for which the MIC in the experiment with Trichoderma viride (336 h) is 10 µg/mL (≈ 36.5 µM); in the experiment with Polyporus versicolor (Trametes versicolor, 336 h), 1 µg/mL (≈ 3.65 µM); in the experiment with Penicillium glaucum it was 1 µg/mL (≈ 3.65 µM); in the experiment with Sclerophoma pityophila (Sydowia polyspora, 336 h), 0.5 µg/mL (≈ 1.83 µM); with Chaetomium globosum (336 h), 2 µg/mL (≈ 7.3 µM); against Aureobasidium pullulans (336 h), 1 µg/mL (≈ 3.65 µM). Further, the MIC is below 0.1 µg/mL in the experiment on Coniophora puteana; 2 µg/mL (≈ 7.3 µM) against Alternaria tenuis; below 20 µg/mL with Staphylococcus aureus (336 h, read-out: MIC); 2 µg/mL (≈ 7.3 µM) against Aspergillus niger (336 h); 50 µg/mL (≈ 183 µM) in the experiment with Eschercihia coli (336 h, read-out: MIC); 0.5 µg/mL (≈ 1.83 µM) against Lentinus tigrinus (336 h).
For the compound `N#CC(Cl)=C(Cl)SC(Cl)=C(Cl)C#N` [Example 9, bis-(1,2-dichloro-2-cyano-vinyl) sulphide], the MIC worked out at 10 µg/mL (≈ 36.5 µM) against Trichoderma viride (setting [2]); 1 µg/mL (≈ 3.65 µM) in the experiment with Polyporus versicolor (Polyporus versicolor, 28° C., 60 to 70% relative humidity, 2 weeks); 2.5 µg/mL (≈ 9.13 µM) in the experiment on Penicillium glaucum; 0.75 µg/mL (≈ 2.74 µM) against Sclerophoma pityophila; 2.5 µg/mL (≈ 9.13 µM) with Chaetomium globosum; 1 µg/mL (≈ 3.65 µM) with Aureobasidium pullulans (setting [2]). Further, the MIC came to 0.5 µg/mL (≈ 1.83 µM) against Coniophora puteana; 0.75 µg/mL (≈ 2.74 µM) in the experiment with Alternaria tenuis; 10 µg/mL (≈ 36.5 µM) with Staphylococcus aureus; 2.5 µg/mL (≈ 9.13 µM) against Aspergillus niger; 25 µg/mL (≈ 91.3 µM) with Eschercihia coli; 1 µg/mL (≈ 3.65 µM) against Lentinus tigrinus.
Take `N#CC(Cl)=CS(=O)(=O)c1ccccc1` [α-Chloro-β-phenylsulphonyl-acrylonitrile, α-Chloro-β-phenylsulphonyl acrylonitrile, reference compound]: the MIC came to 35 µg/mL (≈ 154 µM) in the experiment with Penicillium glaucum (Penicillium, 336 h); 50 µg/mL (≈ 220 µM) in the experiment on Chaetomium globosum (336 h); 500 µg/mL (≈ 2200 µM) with Staphylococcus aureus (336 h, read-out: MIC); 50 µg/mL (≈ 220 µM) in the experiment on Aspergillus niger (336 h); 200 µg/mL (≈ 878 µM) with Eschercihia coli (336 h, read-out: MIC).

The term MIC denotes the least concentration at which growth counts as inhibited.
